Test results reported in patent publication US20140128385A1 (NOVARTIS AG, priority 2011, published 2014).
Where a name gives a salt, the structure may show the parent alone.

Target: T1, BACE-2 (Homo sapiens, UniProt Q9Y5Z0)
T1 construct: Recombinant BACE-2 (extracellular domain, expressed in baculovirus and purified using standard methods); made in house
T1 sequence (Q9Y5Z0 63-473 limits assumed): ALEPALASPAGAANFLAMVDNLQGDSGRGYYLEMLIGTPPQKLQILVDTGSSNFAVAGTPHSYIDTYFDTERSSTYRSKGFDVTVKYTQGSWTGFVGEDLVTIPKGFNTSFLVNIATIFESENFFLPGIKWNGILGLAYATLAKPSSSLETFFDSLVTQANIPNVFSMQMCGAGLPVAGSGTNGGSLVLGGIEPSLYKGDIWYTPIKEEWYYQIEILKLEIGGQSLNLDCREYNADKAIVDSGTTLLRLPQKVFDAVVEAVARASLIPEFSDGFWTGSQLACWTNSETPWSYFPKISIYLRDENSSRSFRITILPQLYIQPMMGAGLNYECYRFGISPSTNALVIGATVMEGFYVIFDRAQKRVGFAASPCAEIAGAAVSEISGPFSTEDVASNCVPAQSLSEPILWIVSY
Assay: assay for inhibition of BACE-2
Type: biochemical

Question: `Cc1nc(C(=O)Nc2ccc(F)c([C@]3(C)CO[C@@](C)(C(F)(F)F)C(N)=N3)c2)c(C)o1` [Example 237, 2,5-Dimethyl-oxazole-4-carboxylic acid [3-((3R,6R)-5-amino-3,6-dimethyl-6-trifluoromethyl-3,6-dihydro-2H-[1,4]oxazin-3-yl)-4-fluoro-phenyl]-amide hydrochloride] was tested. Which IC50 did it give?
Answer: The IC50 was 7 nM.

Question: How did the IC50 turn out when `Cc1cc(OC(F)F)cnc1C(=O)Nc1ccc(F)c([C@]2(C)CO[C@@](C)(C(F)(F)F)C(N)=N2)c1` [Example 238] was run?
Answer: Its IC50 is 12 nM.

Question: With `C#CCOc1cnc(C(=O)Nc2ccc(F)c([C@]3(C)CO[C@@](C)(C(F)(F)F)C(N)=N3)c2)c(N)n1` [Example 239] as the molecule, how does the IC50 read?
Answer: Its IC50 is 15 nM.

Question: Which IC50 does the source give for `Cc1cc(C(F)F)cnc1C(=O)Nc1ccc(F)c([C@]2(C)CO[C@@](C)(C(F)(F)F)C(N)=N2)c1` [Example 241, 5-Difluoromethyl-3-methyl-pyridine-2-carboxylic acid [3-((3R,6R)-5-amino-3,6-dimethyl-6-trifluoromethyl-3,6-dihydro-2H-[1,4]oxazin-3-yl)-4-fluoro-phenyl]-amide hydrochloride] here?
Answer: The IC50 was 8 nM.

Question: For `C[C@@]1(c2cc(NC(=O)c3ncc(C(F)F)nc3N)ccc2F)CO[C@@](C)(C(F)(F)F)C(N)=N1` [Example 242, 3-Amino-5-difluoromethyl-pyrazine-2-carboxylic acid [3-((3R,6R)-5-amino-3,6-dimethyl-6-trifluoromethyl-3,6-dihydro-2H-[1,4]oxazin-3-yl)-4-fluoro-phenyl]-amide], which IC50 is on record?
Answer: The IC50 was 11 nM.

Question: With `C[C@@]1(c2cc(NC(=O)c3ncc(C(F)F)cc3N)ccc2F)CO[C@@](C)(C(F)(F)F)C(N)=N1` [Example 243, 3-Amino-5-difluoromethyl-pyridine-2-carboxylic acid [3-((3R,6R)-5-amino-3,6-dimethyl-6-trifluoromethyl-3,6-dihydro-2H-[1,4]oxazin-3-yl)-4-fluoro-phenyl]-amide] as the molecule, how does the IC50 read?
Answer: Its IC50 is 11 nM.

Question: Which IC50 does the source give for `COc1cc(C(F)F)c(C(=O)Nc2ccc(F)c([C@]3(C)CO[C@@](C)(C(F)(F)F)C(N)=N3)c2)nn1` [Example 244, 4-Difluoromethyl-6-methoxy-pyridazine-3-carboxylic acid [3-((3R,6R)-5-amino-3,6-dimethyl-6-trifluoromethyl-3,6-dihydro-2H-[1,4]oxazin-3-yl)-4-fluoro-phenyl]-amide hydrochloride] here?
Answer: The IC50 was 9 nM.

Question: With `[2H]C([2H])([2H])OCc1cc(C#N)cnc1C(=O)Nc1ccc(F)c([C@]2(C)CO[C@@](C)(C(F)(F)F)C(N)=N2)c1` [Example 245, 5-Cyano-3-trideuteromethoxymethyl-pyridine-2-carboxylic acid [3-((3R,6R)-5-amino-3,6-dimethyl-6-trifluoromethyl-3,6-dihydro-2H-[1,4]oxazin-3-yl)-4-fluoro-phenyl]-amide] as the molecule, how does the IC50 read?
Answer: Its IC50 is 13 nM.

Question: How did the IC50 turn out when `C[C@@]1(c2cc(NC(=O)c3ncc(C(F)F)cc3Cl)ccc2F)CO[C@@](C)(C(F)(F)F)C(N)=N1` [Example 246, 3-Chloro-5-difluormethyl-pyridine-2-carboxylic acid [3-((3R,6R)-5-amino-3,6-dimethyl-6-trifluoromethyl-3,6-dihydro-2H-[1,4]oxazin-3-yl)-4-fluoro-phenyl]-amide-amide] was run?
Answer: The IC50 was 8 nM.

Question: For `[2H]C([2H])([2H])OC([2H])([2H])c1cc2c(Cl)c[nH]c2nc1C(=O)Nc1ccc(F)c([C@]2(C)CO[C@@](C)(C(F)(F)F)C(N)=N2)c1` [Example 247, 3-Chloro-5-trideuteromethoxy-dideuteromethyl-1H-pyrrolo[2,3-b]pyridine-6-carboxylic acid [3-((3R,6R)-5-amino-3,6-dimethyl-6-trifluoromethyl-3,6-dihydro-2H-[1,4]oxazin-3-yl)-4-fluoro-phenyl]-amide], which IC50 is on record?
Answer: Its IC50 is 44 nM.

Question: With `C[C@@]1(c2cc(NC(=O)c3ncc(C(F)(F)F)cc3Cl)ccc2F)CO[C@@](C)(C(F)(F)F)C(N)=N1` [Example 248, 3-Chloro-5-trifluoromethyl-pyridine-2-carboxylic acid [3-((3R,6R)-5-amino-3,6-dimethyl-6-trifluoromethyl-3,6-dihydro-2H-[1,4]oxazin-3-yl)-4-fluoro-phenyl]-amide] as the molecule, how does the IC50 read?
Answer: The IC50 was 22 nM.

Question: For `Cc1cc(F)cnc1C(=O)Nc1ccc(F)c([C@]2(C)CO[C@@](C)(C(F)(F)F)C(N)=N2)c1` [Example 249, 5-Fluoro-3-methyl-pyridine-2-carboxylic acid [3-((3R,6R)-5-amino-3,6-dimethyl-6-trifluoro-methyl-3,6-dihydro-2H-[1,4]oxazin-3-yl)-4-fluoro-phenyl]-amide], which IC50 is on record?
Answer: The IC50 was 3 nM.

Question: With `Cc1cc(OC(F)F)cnc1C(=O)Nc1ccc(F)c(C2(C)COC(CF)(CF)C(N)=N2)c1` (stereo not shown) [Example 253, 5-Difluoromethoxy-3-methyl-pyridine-2-carboxylic acid [3-(5-amino-6,6-bis-fluoromethyl-3-methyl-3,6-dihydro-2H-[1,4]oxazin-3-yl)-4-fluoro-phenyl]-amide] as the molecule, how does the IC50 read?
Answer: Its IC50 is 426 nM.

Question: For `Cc1cc(OC(F)F)cnc1C(=O)Nc1ccc(F)c([C@]2(C)COC(CF)(CF)C(N)=N2)c1` [Example 254, 5-Difluoromethoxy-3-methyl-pyridine-2-carboxylic acid [3-((R)-5-amino-6,6-bis-fluoromethyl-3-methyl-3,6-dihydro-2H-[1,4]oxazin-3-yl)-4-fluoro-phenyl]-amide], which IC50 is on record?
Answer: Its IC50 is 59 nM.

Question: For `Cc1cc(Cl)cnc1C(=O)Nc1ccc(F)c(C2(C)COC(CF)(CF)C(N)=N2)c1` (stereo not shown) [Example 255, 5-Chloro-3-methyl-pyridine-2-carboxylic acid [3-(5-amino-6,6-bis-fluoromethyl-3-methyl-3,6-dihydro-2H-[1,4]oxazin-3-yl)-4-fluoro-phenyl]-amide], which IC50 is on record?
Answer: The IC50 was 9 nM.

Question: `Cc1cc(C#N)cnc1C(=O)Nc1ccc(F)c([C@]2(CF)COC(CF)(CF)C(N)=N2)c1` [Example 256, 5-Cyano-3-methyl-pyridine-2-carboxylic acid [3-((R)-5-amino-3,6,6-tris-fluoromethyl-3,6-dihydro-2H-[1,4]oxazin-3-yl)-4-fluoro-phenyl]-amide] was tested. Which IC50 did it give?
Answer: Its IC50 is 18 nM.

Question: For `C[C@@]1(c2cccc(NC(=O)c3ccc(Br)cn3)n2)COCC(N)=N1` [Example 257, 5-Bromo-pyridine-2-carboxylic acid [6-((R)-5-amino-3-methyl-3,6-dihydro-2H-[1,4]-oxazin-3-yl)-pyridin-2-yl]-amide], which IC50 is on record?
Answer: The IC50 was 256 nM.

Question: Which IC50 does the source give for `NC1=NC(CF)(c2cccc(NC(=O)c3ccc(Cl)cn3)n2)COC1` (stereo not shown) [Example 259, 5-{6-[(5-Chloro-pyridine-2-carbonyl)-amino]-pyridin-2-yl}-5-fluoromethyl-5,6-dihydro-2H-[1,4]oxazin-3-yl-ammonium trifluoro acetate] here?
Answer: Its IC50 is 1390 nM.

Question: `NC1=NC(CF)(c2cccc(NC(=O)c3ccc(Br)cn3)n2)COC1` (stereo not shown) [Example 260] was tested. Which IC50 did it give?
Answer: The IC50 was 1660 nM.

Question: Which IC50 does the source give for `Cc1cc(C#N)cnc1C(=O)Nc1cccc(C2(CF)COCC(N)=N2)n1` (stereo not shown) [Example 261, 5-{6-[(5-Cyano-3-methyl-pyridine-2-carbonyl)-amino]-pyridin-2-yl}-5-fluoromethyl-5,6-dihydro-2H-[1,4]oxazin-3-yl-ammonium trifluoro acetate] here?
Answer: Its IC50 is 1020 nM.

Question: How did the IC50 turn out when `[2H]c1nc(C(=O)Nc2cccc(C3(CF)COCC(N)=N3)n2)c(C([2H])([2H])[2H])c([2H])c1Cl` (stereo not shown) [Example 262, 5-{6-[(4,6-Dideutero-5-chloro-3-trideuteromethyl-pyridine-2-carbonyl)-amino]-pyridin-2-yl}-5-fluoromethyl-5,6-dihydro-2H-[1,4]oxazin-3-yl-ammonium trifluoro acetate] was run?
Answer: Its IC50 is 242 nM.

Question: Which IC50 does the source give for `NC(=S)c1ccc(C(=O)Nc2cccc(C3(CF)COCC(N)=N3)n2)nc1` (stereo not shown) [Example 263] here?
Answer: Its IC50 is 8660 nM.
